Measured values taken from publication PMC5469811, “Identification of GXXXXG motif in Chrysophsin-1 and its implication in the design of analogs with cell-selective antimicrobial and anti-endotoxin activities” (Scientific Reports, 2017).
In brackets after ≈: the same amount, converted by molar mass. Residues, ends and D or L forms follow the SMILES beside them.

Tests used:
E. coli ATCC 25922 [1] = format: cell-based, Escherichia coli; conditions: ATCC 25922, 18 h
Description: (§1) E. coli ATCC25922 was grown to 10^6 CFU/ml in fresh MH broth with various divalent and monovalent salts at their physiological concentrations. Serial dilutions of chrysophsin-1 and its variants prepared with the same MH broth were added to the E. coli ATCC 25922 suspensions. The bacteria were incubated at 37 °C in a shaking incubator for 18 h and the MIC values of individual peptides against E. coli ATCC 25922 were determined. Thermal tolerance of Chrysophsin-1 and its variants was checked by incubating the peptides at 4 °C, 60 °C and 90 °C for 1 h prior to MIC determination. The antibacterial activity in presence of serum was carried out by adding a final concentration of 10% fetal bovine serum in the assay diluents containing 0.4% BSA, 0.02% glacial acetic acid. The subsequent steps in both the experiments were consistent with the MIC determination method.

E. coli (ATCC 25922) = format: cell-based, Escherichia coli; conditions: ATCC 25922, 1 h
Description: as §1

[2] = system: Candida parapsilosis (ATCC 22019); assay: microbe, parasite or virus in culture; format: cell-based; conditions: ATCC 22019, 48 h; read-out: Minimum inhibitory concentration (MIC)
Description: (§2) The anti- fungal activity of peptides was performed according to the standard micro broth dilution technique as per NCCLS guidelines. These plates were incubated in a moist chamber at 35 °C, and an absorbance at 492 nm was recorded on a VersaMax microplate reader after 48 h for C. albicans ATCC 10231 and C. parapsilosis ATCC 22019 and 72 h for C. neoformans.

[3] = system: Candida albicans (ATCC 10231); assay: microbe, parasite or virus in culture; format: cell-based; conditions: ATCC 10231, 48 h; read-out: Minimum inhibitory concentration (MIC)
Description: as §2

Cryptococcus neoformans = assay: microbe, parasite or virus in culture; format: cell-based; conditions: 72 h; read-out: Minimum inhibitory concentration (MIC)
Description: as §2

[4] = system: Sporothrix schenckii (Patient isolates); assay: microbe, parasite or virus in culture; format: cell-based; conditions: 48 h; read-out: Minimum inhibitory concentration (MIC)
[5] = system: Staphylococcus aureus (ATCC 700699 MRSA); assay: microbe, parasite or virus in culture; format: cell-based; conditions: ATCC 700699; read-out: Minimum inhibitory concentration (MIC)
Description: (§3) Antibacterial assay against various Gram-positive and Gram-negative strains of bacteria was performed by the serial two-fold dilution method according to the previously reported procedure, [36]. The antibacterial assays were repeated thrice and the averages of these MIC values were reported.

[6] = system: Staphylococcus aureus (ATCC 33592) Methicillin resistant Genatmicin resistant; assay: microbe, parasite or virus in culture; format: cell-based; conditions: ATCC 33592; read-out: Minimum inhibitory concentration (MIC)
Description: as §3

[7] = system: Staphylococcus aureus (ATCC 700698 MRSA); assay: microbe, parasite or virus in culture; format: cell-based; conditions: ATCC 700698; read-out: Minimum inhibitory concentration (MIC)
Description: as §3

[8] = system: Staphylococcus aureus (BAA-44)MDR; assay: microbe, parasite or virus in culture; format: cell-based; conditions: BAA-44; read-out: Minimum inhibitory concentration (MIC)
Description: as §3

[9] = system: Staphylococcus aureus (ATCC 29213); assay: microbe, parasite or virus in culture; format: cell-based; conditions: ATCC 29213; read-out: Minimum inhibitory concentration (MIC)
Description: as §3

[10] = system: Pseudomonas aeruginosa (ATCC BAA-427); assay: microbe, parasite or virus in culture; format: cell-based; conditions: ATCC BAA-427; read-out: Minimum inhibitory concentration (MIC)
Description: as §3

[11] = system: Escherichia coli (ATCC 25922); assay: microbe, parasite or virus in culture; format: cell-based; conditions: ATCC 25922; read-out: Minimum inhibitory concentration (MIC)
Description: as §3

[12] = system: Klebsiella pneumoniae (ATCC 27736); assay: microbe, parasite or virus in culture; format: cell-based; conditions: ATCC 27736; read-out: Minimum inhibitory concentration (MIC)
Description: as §3

[13] = system: Escherichia coli (ATCC 9637); assay: microbe, parasite or virus in culture; format: cell-based; conditions: ATCC 9637; read-out: Minimum inhibitory concentration (MIC)
Description: as §3

[14] = system: Bacillus subtilis (ATCC 6633); assay: microbe, parasite or virus in culture; format: cell-based; conditions: ATCC 6633; read-out: Minimum inhibitory concentration (MIC)
Description: as §3

[15] = system: Staphylococcus aureus (ATCC 25923); assay: microbe, parasite or virus in culture; format: cell-based; conditions: ATCC 25923; read-out: Minimum inhibitory concentration (MIC)
Description: as §3

E. coli ATCC 25922 [16] = assay: Synergy with conventional antibiotics, checkerboard titration; format: cell-based, Escherichia coli
Description: The checkerboard titration method was followed to check the synergy of peptides with other antibiotics. First, 2-fold serial dilutions of the antibiotics and antimicrobial peptides were prepared. Subsequently, 50 μl each of different concentrations of antibiotics and of antimicrobial peptides was mixed and added into 100 μl of log phase bacteria culture in a 96-well plate. The plates were then incubated at 37 °C for 24 h. The fractional inhibitory concentration (FIC) index (FICI) was calculated as follows[39]: FICI=(MICofdrugAincombination)/(MICofdrugAalone)+(MICofdrugBincombination)/(MICofdrugB): FICI < 0.5 is considered to indicate synergy; 0.5 < FICI < 1.0 is considered additive; 1.0 < FICI < 4.0 is considered indifferent; and FICI > 4.0 is considered antagonism.

S. aureus (ATCC 25923) = format: cell-based, Staphylococcus aureus; conditions: ATCC 25923, 1 h
Description: as §1

- Antibacterial activity (MIC) in the presence of 10% FBS (E. coli ATCC 25922 [1]): >33 µM
- Antibacterial activity (MIC) in the presence of FeCl3 (E. coli ATCC 25922 [1]): 26 µM
- Antibacterial activity (MIC) in the presence of KCl (E. coli ATCC 25922 [1]): 6 µM
- Antibacterial activity (MIC) in the presence of MgCl2 (E. coli ATCC 25922 [1]): 20 µM
- Antibacterial activity (MIC) in the presence of NH4Cl (E. coli ATCC 25922 [1]): 5 µM
- Antibacterial activity (MIC) in the presence of NaCl (E. coli ATCC 25922 [1]): 20 µM
- Antibacterial activity (MIC) in the presence of ZnCl2 (E. coli ATCC 25922 [1]): 12 µM
- Antibacterial activity (MIC) after incubating peptide at 4 °C (E. coli (ATCC 25922)): 4 µM
- Antibacterial activity (MIC) after incubating peptide at 60 °C (E. coli (ATCC 25922)): 14 µM
- Antibacterial activity (MIC) after incubating peptide at 90 °C (E. coli (ATCC 25922)): 17.2 µM
- MIC [2]: >30 µM
- MIC [3]: >30 µM
- MIC (Cryptococcus neoformans): >30 µM
- MIC [4]: >30 µM
- MIC [5]: 3 µM (≈ 8.91 µg/mL)
- MIC [6]: 1.6 µM (≈ 4.75 µg/mL)
- MIC [7]: 3 µM (≈ 8.91 µg/mL)
- MIC [8]: 3 µM (≈ 8.91 µg/mL)
- MIC [9]: 3 µM (≈ 8.91 µg/mL)
- MIC [10]: 13.6 µM (≈ 40.4 µg/mL)
- MIC [11]: 4 µM (≈ 11.9 µg/mL)
- MIC [12]: 27.2 µM (≈ 80.8 µg/mL)
- MIC [13]: 6.8 µM (≈ 20.2 µg/mL)
- MIC [14]: 3 µM (≈ 8.91 µg/mL)
- MIC [15]: 3 µM (≈ 8.91 µg/mL)
- Antibacterial activity (MIC) after incubating peptide at 4 °C (S. aureus (ATCC 25923)): 3 µM
- Antibacterial activity (MIC) after incubating peptide at 60 °C (S. aureus (ATCC 25923)): >33 µM
- Antibacterial activity (MIC) after incubating peptide at 90 °C (S. aureus (ATCC 25923)): >33 µM
Structure (SMILES): CC[C@H](C)[C@H](NC(=O)[C@H](C)NC(=O)CNC(=O)[C@H](CCCCN)NC(=O)[C@@H](NC(=O)[C@H](CC(C)C)NC(=O)[C@H](Cc1c[nH]c2ccccc12)NC(=O)CNC(=O)[C@H](Cc1ccccc1)NC(=O)[C@@H](N)Cc1ccccc1)[C@@H](C)CC)C(=O)N[C@@H](Cc1c[nH]cn1)C(=O)N[C@@H](C)C(=O)N1CCC[C@H]1C(=O)N[C@@H](CCCCN)C(=O)N[C@@H](C)C(=O)N[C@H](C(=O)N[C@@H](Cc1c[nH]cn1)C(=O)N1CCC[C@H]1C(=O)N[C@@H](CC(C)C)C(=O)N[C@H](C(=O)N[C@@H](Cc1c[nH]cn1)C(=O)N[C@@H](CCCNC(=N)N)C(=O)N[C@@H](CCCNC(=N)N)C(=O)N[C@@H](CCCNC(=N)N)C(=O)N[C@@H](Cc1c[nH]cn1)C(N)=O)[C@@H](C)CC)[C@@H](C)CC [G13,18P-Chr-1] (H-FFGWLIKGAIHAPKAIHPLIHRRRH-NH2; N-terminus and C-terminus assumed)
- interaction of peptide with chloramphenicol (by FICI) (E. coli ATCC 25922 [16]): additivity
